Results: ChEMBL document CHEMBL5634105, “Novel chlorin e6-based conjugates of tyrosine kinase inhibitors: Synthesis and photobiological evaluation as potent photosensitizers for photodynamic therapy” (Eur J Med Chem, 2023)

Biological target: T1, Broad substrate specificity ATP-binding cassette transporter ABCG2 (Homo sapiens, UniProt Q9UNQ0)
T1 sequence (Q9UNQ0 whole entry): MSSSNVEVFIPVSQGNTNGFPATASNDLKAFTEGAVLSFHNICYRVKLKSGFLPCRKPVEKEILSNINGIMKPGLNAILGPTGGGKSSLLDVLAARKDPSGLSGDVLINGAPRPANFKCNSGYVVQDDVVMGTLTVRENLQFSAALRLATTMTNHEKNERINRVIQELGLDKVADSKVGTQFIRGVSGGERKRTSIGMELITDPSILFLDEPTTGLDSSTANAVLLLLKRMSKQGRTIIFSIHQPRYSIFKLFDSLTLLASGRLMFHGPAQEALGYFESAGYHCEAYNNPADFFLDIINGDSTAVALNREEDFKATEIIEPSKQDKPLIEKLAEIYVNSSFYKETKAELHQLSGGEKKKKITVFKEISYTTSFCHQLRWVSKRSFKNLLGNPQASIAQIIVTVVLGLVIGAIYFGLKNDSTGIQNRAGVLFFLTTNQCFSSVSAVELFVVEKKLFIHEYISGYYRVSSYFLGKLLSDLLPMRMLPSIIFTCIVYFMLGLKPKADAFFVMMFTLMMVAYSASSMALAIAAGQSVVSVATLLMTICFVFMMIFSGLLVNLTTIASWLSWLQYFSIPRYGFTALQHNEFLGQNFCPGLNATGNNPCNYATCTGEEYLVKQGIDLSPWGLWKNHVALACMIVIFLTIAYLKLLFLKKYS
Assay: Inhibition of ABCG2 in human HepG2 cells assessed as decrease in photosensitive molecules efflux at 5 uM incubated for 25 hrs by fluorescence spectrophotometer
Format: cell-based
Conditions: hepg2, 25 h; call rule not given here

C=Cc1c(C)c2cc3nc(c(CC(=O)NCCOCCOCCOCCC(=O)OCCN4CCN(c5cc(Nc6ncc(C(=O)Nc7c(C)cccc7Cl)s6)nc(C)n5)CC4)c4[nH]c(cc5nc(cc1[nH]2)C(C)=C5CC)c(C)c4C(=O)O)[C@@H](CCC(=O)O)[C@@H]3C
inhibition (INH): Not Active
